Source: the METLIN SMRT retention time set (Domingo-Almenara et al. 2019)

Assay: gradient 5% acetonitrile 3 min, to 50% in 2 min, to 85% in 15 min, held 3 min, 100 µL/min
Conditions: column: Zorbax Extend-C18 2.1 x 50 mm; eluents: water / acetonitrile, 0.1% formic acid
Method in brief: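 Retention times of pure standards were taken from adduct peaks that were selected by computer and manually inspected. Over 3 months, mixtures of ~100 molecules were run by HPLC–quadrupole time-of-flight mass spectrometry in positive and negative ionization mode. The Zorbax Extend-C18 column (2.1 × 50 mm, 1.8 μm) ran at 100 μL/min in water and acetonitrile, each containing 0.1% formic acid, with 40 μL dead volume and 900 μL dwell volume.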
With `COCCN1CCC(CNS(=O)(=O)c2ccc(F)cc2C)CC1` the RP-LC retention time was 566 s. `Cc1ccc(C(=O)NC2CCN(c3cc(-c4cccs4)[nH]n3)C2)c(C)c1` (stereo not drawn) gave an RP-LC retention time of 742 s. `Cc1cnc(-c2ccncc2)n1CC1CN(S(=O)(=O)C(C)C)C1` gave an RP-LC retention time of 573 s. `COc1ccc(C)cc1NC(=O)Cn1nc(N2CCCC(C)C2)c2ccccc2c1=O` (stereo not drawn) gave an RP-LC retention time of 1260 s. `O=C(c1ccc2c(c1)OCO2)N1CCN(Cc2nnnn2-c2ccc(F)c(F)c2)CC1` showed an RP-LC retention time of 746 s. With `Cc1ccc(-c2noc(Cn3ncn4nc(-c5ccc(C)cc5C)cc4c3=O)n2)cc1` the RP-LC retention time was 1270 s. `CCn1cc(S(=O)(=O)N2CCC(c3noc(COCCOC)n3)CC2)cn1` showed an RP-LC retention time of 704 s. With `Cc1[nH]c(C(=O)N2CCCC(C(=O)NCCCN3CCOCC3)C2)c(C)c1C(=O)OC(C)C` (stereo not drawn) the RP-LC retention time was 608 s. In the case of `O=C(NCc1ccc(F)cc1Cl)C1CCN(c2ncnc3c2oc2ccccc23)CC1`, the RP-LC retention time is reported as 790 s. For `CN1c2cc(F)ccc2C(=O)NC12CCN(C(=O)c1cccc(Cl)c1)CC2`, the RP-LC retention time was 800 s. Work on `Cc1ccc(-c2cn3c(n2)N(C(=O)c2cnccn2)CCC3)cc1` yielded an RP-LC retention time of 642 s. For `CCc1nc2c(NC(=O)c3ccc(F)c(Cl)c3)cccn2n1`, the RP-LC retention time was 924 s. `Cc1ccc(NC(=O)CSc2ccc(N3CCCC(C(=O)NC4CC4)C3)nn2)cc1` (stereo not drawn) gave an RP-LC retention time of 659 s. `Cc1ccc(CNC(=O)Cn2c(=O)c(CCC(=O)NCC(C)C)nc3ccccc32)cc1` showed an RP-LC retention time of 814 s. In the case of `Cc1nnc2cc(N3CCN(C(=O)Nc4cccc(Cl)c4)CC3)cnn12`, the RP-LC retention time is reported as 596 s. `CC1(C(=O)NCc2ccccc2)CCCN(C(=O)Nc2ccc(F)cc2)C1` (stereo not drawn) gave an RP-LC retention time of 588 s. Molecule `O=C(Nc1ccc(Br)cc1)C1CCCN(c2ncc(-c3ccc(F)cc3)cn2)C1` (stereo not drawn) has an RP-LC retention time of 1240 s. Molecule `CCn1cnc2ccc(-c3noc(C(C)NC(=O)c4ccccc4)n3)cc21` (stereo not drawn) has an RP-LC retention time of 636 s. `O=C1N(c2cccc(F)c2)c2ncccc2S(=O)(=O)N1Cc1cccc(F)c1` gave an RP-LC retention time of 1030 s. Work on `Cc1ccc(-c2noc(Cn3cnc4c(cnn4-c4ccc(C(C)C)cc4)c3=O)n2)cc1C` yielded an RP-LC retention time of 1330 s. With `Cc1nnc2n1CCC(N(C)C(=O)Cc1cccs1)CC2` (stereo not drawn) the RP-LC retention time was 571 s. In the case of `CCc1nccn1Cc1nc(-c2ccc(Cl)cc2)no1`, the RP-LC retention time is reported as 670 s. For `O=C(NCc1ccc(F)cc1)C1CC(=O)N(c2n[nH]c3cccc(F)c23)C1` (stereo not drawn), the RP-LC retention time was 707 s. Work on `O=C(Nc1cnn(-c2ncc(N3CCCC3)cn2)c1)c1cccc(C(F)(F)F)c1` yielded an RP-LC retention time of 917 s. Molecule `Cc1ncc(-c2nc(-c3ccccc3)cs2)c(=O)n1CC(=O)N1CCCC1` has an RP-LC retention time of 827 s. Work on `CCN(CC)CCCNC(=O)C1CCCN(C(=O)c2nnc(C(=O)Nc3ccc(F)cc3)s2)C1` (stereo not drawn) yielded an RP-LC retention time of 652 s. `O=C(Nc1nc2ccccc2s1)C1CCN(C(=O)c2ccccc2Cl)CC1` showed an RP-LC retention time of 829 s. In the case of `O=C(NCc1cccs1)c1ccc2ncnc(N3CCCCC3)c2c1`, the RP-LC retention time is reported as 644 s. Work on `Cc1ccc2c(c1)OCC(=O)N2Cc1nc(-c2ccccc2C)no1` yielded an RP-LC retention time of 1120 s. Molecule `Cc1sc(-c2nnc(C(=O)N3CCCC3)o2)cc1S(=O)(=O)NCc1cccnc1` has an RP-LC retention time of 1310 s. In the case of `CCOc1ccccc1NC(=O)N1CCC2(C1)C(=O)N(C)c1ccc(OC)cc12` (stereo not drawn), the RP-LC retention time is reported as 882 s. `COc1ccc(-c2nc3cnccn3c2Nc2cccc(Cl)c2C)cc1` gave an RP-LC retention time of 965 s. `COc1ccc(NC(=O)C2CCN(c3cncnc3N(C)C)CC2)cc1OC` gave an RP-LC retention time of 592 s. Molecule `CN1CCN(C(=O)Cn2cccc2-c2nc(-c3ccccc3)cs2)CC1` has an RP-LC retention time of 664 s. With `Cc1cccc2cc(-c3noc(C(C)C)n3)c(NCCc3ccc(S(N)(=O)=O)cc3)nc12` the RP-LC retention time was 1270 s. Molecule `Cc1cc(N(CCO)CCO)n2nc(-c3ccc(C(C)(C)C)cc3)nc2n1` has an RP-LC retention time of 687 s. Work on `CC(C)NC(=O)N(C)Cc1nc2cc(C(=O)N3CCCC3)ccc2n1C` yielded an RP-LC retention time of 550 s. For `COc1ccc(C(=O)N2CCC(COc3ccc(C(=O)NC(C)C)cc3)CC2)c(C)c1`, the RP-LC retention time was 851 s. In the case of `COc1ccc2c(c1)C1(CCN(S(=O)(=O)c3ccc4c(c3)oc(=O)n4C)C1)C(=O)N2C` (stereo not drawn), the RP-LC retention time is reported as 818 s. In the case of `CCc1nnc(NC(=O)Cc2csc(-n3cccc3)n2)s1`, the RP-LC retention time is reported as 701 s. For `O=C(CSCc1ccccc1)Nc1ccc(CC(=O)NC2CC2)cc1`, the RP-LC retention time was 705 s. Work on `O=S(=O)(Cc1ccccc1Cl)N1CCc2nc(-c3ccc(F)cc3)ncc2C1` yielded an RP-LC retention time of 1100 s. In the case of `CCc1nc(-c2ccc(-c3noc(COc4ccccc4)n3)cc2)cs1`, the RP-LC retention time is reported as 1290 s. Molecule `CC1Cc2cc(-c3cc(CC(=O)NCc4ccco4)no3)ccc2O1` (stereo not drawn) has an RP-LC retention time of 616 s. For `COc1ccc(-n2cc(C(=O)OCCc3ccccn3)c3cc(OC)c(OC)cc3c2=O)cc1`, the RP-LC retention time was 681 s. Molecule `CCCCN(C)C(=O)CN1C(=O)C2CCCCN2c2ccc(S(=O)(=O)N(CC)CC)cc21` (stereo not drawn) has an RP-LC retention time of 1010 s. `COc1cc(-n2nnc(C(=O)NCc3ccco3)c2N)ccc1Cl` showed an RP-LC retention time of 765 s. For `CN(CC1CCOCC1)C(=O)Cc1ccsc1`, the RP-LC retention time was 691 s. For `Cc1c(CC(=O)N2CCN(c3cccc(Cl)c3)CC2)c2c(=O)n(C)c(=O)n(C)c2n1C`, the RP-LC retention time was 790 s. `CC(NC(=O)c1ccco1)c1nc(-c2ccc(Oc3ccccc3)cc2)no1` (stereo not drawn) gave an RP-LC retention time of 1030 s. For `COc1ccc2nc(N3CC(C(=O)N4CCc5cc(OC)c(OC)cc5C4)C3)sc2c1`, the RP-LC retention time was 661 s. In the case of `COc1ccc(-n2ncc3c(=O)n(Cc4nc(-c5cccc(Br)c5)no4)cnc32)cc1`, the RP-LC retention time is reported as 1110 s. `CC1CCN(CCNS(=O)(=O)c2ccccc2-c2nc(-c3ccc(F)cc3)no2)CC1` showed an RP-LC retention time of 752 s. For `C=CCc1cc(OC)c(O)c(C(=O)NCCO)c1`, the RP-LC retention time was 735 s. `CC(C)Cc1nnc(NC(=O)C2CCN(C(=O)c3cccc(F)c3)CC2)s1` gave an RP-LC retention time of 780 s. Molecule `CCOC(=O)c1ncoc1-c1ccccc1C(=O)NC1CCCCC1` has an RP-LC retention time of 770 s. In the case of `Cc1cc2c(cc1S(=O)(=O)N1CCN(c3ccccn3)CC1)OCCN2C`, the RP-LC retention time is reported as 668 s. In the case of `O=C(NCC1CCN(c2cc(-c3ccncc3)[nH]n2)CC1)c1ccc2c(c1)OCO2`, the RP-LC retention time is reported as 598 s. `CN1C(=O)c2cc(C(=O)N3CCN(c4ccccc4F)CC3)nn2CC1(C)C(=O)NC1CCCCC1` (stereo not drawn) showed an RP-LC retention time of 834 s. For `O=C(Cc1csc(NC(=O)c2cnccn2)n1)NCCc1c[nH]c2ccccc12`, the RP-LC retention time was 654 s. For `CC(C)[C@@H]1NC(=O)[C@H](Cc2ccccc2)NC(=O)[C@@H](CC(=O)O)NC(=O)CNC(=O)[C@H](CCCN=C(N)N)NC1=O`, the RP-LC retention time was 624 s. For `Cc1cc2n(n1)CCCN2C(=O)CCC(=O)NC1CCN(Cc2ccccc2)CC1`, the RP-LC retention time was 579 s. With `COc1ccccc1NC(=O)c1cc2c(=O)oc3ccccc3c2n1C` the RP-LC retention time was 981 s. With `O=C(c1cccs1)N(Cc1ccco1)c1nc2c(F)cc(F)cc2s1` the RP-LC retention time was 1160 s. In the case of `Cc1ccccc1N(C)C(=O)C1CCCN(c2ncnc3c2nc2n3CCCCC2)C1` (stereo not drawn), the RP-LC retention time is reported as 870 s. `COCCn1cc(C(=O)NC2CCCCCC2)c2nn(-c3ccccc3)c(=O)c-2c1` gave an RP-LC retention time of 1010 s. `O=C(CCn1cnc2cc(-c3noc(Cc4cccc(F)c4)n3)ccc21)N1CCCC1` showed an RP-LC retention time of 726 s. Molecule `CC1CCN(Cc2csc(N3CCN(C(=O)c4ccc5c(c4)OCO5)CC3)n2)CC1` has an RP-LC retention time of 632 s. With `COc1cccc(Cn2c(=O)c3ccnn3c3ccc(C(=O)O)cc32)c1` the RP-LC retention time was 785 s. For `COCCCNC(=O)c1nc2ccccn2c1-c1ccc(Cl)cc1`, the RP-LC retention time was 764 s. Work on `O=C(NCC1CCCO1)c1ccc(NC(=O)C2CCC2)cc1N1CCCCC1` (stereo not drawn) yielded an RP-LC retention time of 617 s. `COC(=O)c1cccc(Nc2c(-c3ccc([N+](=O)[O-])cc3)nc3cnccn23)c1` showed an RP-LC retention time of 839 s. Work on `O=C(Nc1ccc2c(c1)OCCO2)c1c(O)c2cccnc2n(-c2ccccc2)c1=O` yielded an RP-LC retention time of 1150 s. `CCOc1ccc(-n2cc(C(=O)OC(C)C)c3ccccc3c2=O)cc1` showed an RP-LC retention time of 1220 s. Molecule `CCOCC(=O)N1C[C@@H]2CCCN3CCC[C@@H]([C@H]23)[C@H]1CCCC(=O)N1CCOCC1` has an RP-LC retention time of 563 s. `CSc1n[nH]c(-c2cccs2)n1` showed an RP-LC retention time of 714 s. With `O=C(NCC1CN(c2ccccc2)C(=O)O1)Nc1ccccc1Cl` (stereo not drawn) the RP-LC retention time was 776 s. Molecule `Cc1cc(Cl)ccc1N1C(=O)CN(S(C)(=O)=O)CC1(C)C(=O)NC1CCCCC1` (stereo not drawn) has an RP-LC retention time of 900 s. Work on `Cc1cccc(S(=O)(=O)Nc2cc(-c3cn4ccc(C)cc4n3)ccc2C)c1` yielded an RP-LC retention time of 704 s. `COc1ccc(-c2nc3cnccn3c2Nc2ccc(C(=O)NCc3ccco3)cc2)cc1OC` gave an RP-LC retention time of 682 s. `CN1CCCc2cc(C(CNC(=O)C(=O)Nc3ccc4c(c3)OCO4)N3CCCC3)ccc21` (stereo not drawn) gave an RP-LC retention time of 714 s. `N#Cc1ccc(C(=O)NC2CCN(c3cc(-c4cccs4)[nH]n3)C2)cc1` (stereo not drawn) showed an RP-LC retention time of 700 s. `CC1=C(c2ccc(C)cc2)S(=O)(=O)N=C1N1CCCN(C(=O)c2cccc(C)c2)CC1` showed an RP-LC retention time of 898 s. For `O=C(O)C1=CCCN(CCON=C(c2ccccc2)c2ccccc2)C1`, the RP-LC retention time was 766 s. `CC(=O)N(C1CCOCC1)C1CCN(C(=O)Nc2cc(F)c(F)c(F)c2)CC1` showed an RP-LC retention time of 747 s. Molecule `COc1ccccc1CNC(=O)Cn1cc(C(=O)N2CCCC2)c(=O)c2ccc(C)nc21` has an RP-LC retention time of 681 s. `CC(C)C1c2nccn2CCCN1C(=O)Cn1c(=O)oc2ccccc21` (stereo not drawn) showed an RP-LC retention time of 603 s. With `O=C(Cc1ccc(Cl)cc1)Nc1ccsc1-c1nnc(C2CC2)o1` the RP-LC retention time was 1190 s.
